Measured values taken from paper PMC7168151, “Brevinin-2GHk from Sylvirana guentheri and the Design of Truncated Analogs Exhibiting the Enhancement of Antimicrobial Activity” (Antibiotics, 2020).
Converted amounts (≈) assume the structure as drawn. Where a SMILES comes first, the peptide text is derived from it. Where no end group is shown, it is not given here.

What was measured:
[1] = tested on: horse erythrocytes
Experimental: Horse erythrocytes (TCS Biosciences Ltd., Buckingham, UK) were subjected to the hemolysis of all synthetic peptides as described previously [35]. Briefly, the erythrocytes were washed and resuspended by PBS to achieve a 4% suspension. The test peptide solutions were transferred into the aforementioned suspension and kept at a constant 37 °C for 2 h, while Triton X-100 (Sigma-Aldrich, St. Louis, MO, USA) was employed to replace the peptide solution for establishing the positive control. The supernatants after incubation were measured at 470 nm.

[2] = tested on: Staphylococcus aureus (NCTC 10788); type: cell-based
Experimental: (§1) The antimicrobial activity of synthetic peptides was determined using the minimal inhibitory concentration (MIC) and the minimal bactericidal concentration […] performed by the microdilution method in a 96 well plate. Gram-positive bacteria, Staphylococcus aureus (NCTC 10788), methicillin-resistant Staphylococcus aureus (MRSA, NCTC 12493), Enterococcus faecalis (NCTC12697), and Gram-negative bacteria, Escherichia coli (NCTC 10418), Pseudomonas aeruginosa (ATCC 27853), Klebsiella pneumoniae (ATCC 43816) and the pathogenic yeast Candida albicans (NCYC 1467). All bacteria were cultured in MHB and C. albicans was cultured in YPD broth. Norfloxacin and amphotericin B were used as positive controls for bacteria and yeast, respectively.

[3] = tested on: Enterococcus faecalis (NCTC12697); type: cell-based
Experimental: as §1

[4] = tested on: Pseudomonas aeruginosa (ATCC 27853); type: cell-based
Experimental: as §1

[5] = tested on: Candida albicans (NCYC 1467); type: cell-based
Experimental: as §1

[6] = tested on: HMEC-1 cells; details: for drop in cell viability of HMEC-1 cells: 100 µM
Experimental: The cytotoxicity of BR2GK and its derivatives were determined by hemolysis assay and MTT assay on the dermal microvascular endothelium cell line, HMEC-1 (ATCC CRL-3243).
MTT assays were conducted as outlined previously [35]. Ten thousand cells were seeded in each well of a 96-well plate. Cells were treated with different peptide concentrations for 24 h. Triton (0.1%) X-100 was used as a positive control.

[7] = tested on: methicillin-resistant Staphylococcus aureus (MRSA, NCTC 12493); type: cell-based
Experimental: as §1

[8] = tested on: Escherichia coli (NCTC 10418); type: cell-based
Experimental: as §1

[9] = tested on: Klebsiella pneumoniae (ATCC 43816); type: cell-based
Experimental: as §1

CC(C)C[C@H](NC(=O)[C@H](CCC(N)=O)NC(=O)[C@H](CCC(N)=O)NC(=O)[C@H](C)NC(=O)CNC(=O)[C@H](C)NC(=O)[C@H](CCCCN)NC(=O)CNC(=O)[C@@H](NC(=O)[C@H](CCC(N)=O)NC(=O)[C@H](CCCCN)NC(=O)[C@H](CC(C)C)NC(=O)[C@H](CC(C)C)NC(=O)[C@H](Cc1ccc(O)cc1)NC(=O)[C@H](CCCCN)NC(=O)[C@H](C)NC(=O)CNC(=O)[C@H](C)NC(=O)[C@H](CCCCN)NC(=O)[C@H](Cc1ccccc1)NC(=O)[C@H](CC(C)C)NC(=O)[C@H](CO)NC(=O)[C@H](CO)NC(=O)[C@H](Cc1ccccc1)NC(=O)CN)C(C)C)C(=O)N[C@@H](C)C(=O)N[C@H]1CSSC[C@@H](C(=O)O)NC(=O)[C@H](CC(N)=O)NC(=O)[C@H](CC(N)=O)NC(=O)[C@H](C)NC(=O)[C@H](C)NC(=O)[C@H](CCCCN)NC1=O [BR2GK] (HELM PEPTIDE1{G.F.S.S.L.F.K.A.G.A.K.Y.L.L.K.Q.V.G.K.A.G.A.Q.Q.L.A.C.K.A.A.N.N.C}$PEPTIDE1,PEPTIDE1,27:R3-33:R3$$$V2.0)
hemolysis of horse erythrocytes at 256 µM [1]: more than 40%
MBC S. aureus [2]: 256 µM (≈ 867 µg/mL)
MIC S. aureus [2]: 64 µM (≈ 217 µg/mL)
MBC E. faecalis [3]: 256 µM (≈ 867 µg/mL)
MIC E. faecalis [3]: 64 µM (≈ 217 µg/mL)
MIC P. aeruginosa [4]: > 512 µM
MIC C. albicans [5]: 256 µM (≈ 867 µg/mL)
cytotoxicity on HMEC-1 cells at 100 µM [6]: significant cytotoxicity

GFSSLFKAGAKYLPKQVGKAGAQQL-NH2 [[P^14]BR2GK(1-25)a]
MBC S. aureus [2]: > 512 µM
MIC S. aureus [2]: 512 µM
MBC P. aeruginosa [4]: > 512 µM
MIC P. aeruginosa [4]: > 512 µM
MBC MRSA [7]: > 512 µM
MIC MRSA [7]: > 512 µM
MBC E. coli [8]: > 512 µM
MIC E. coli [8]: > 512 µM
MBC K. pneumoniae [9]: > 512 µM
MIC K. pneumoniae [9]: > 512 µM

GFSSLFKAGAKYLAKQVGKAGAQQL-NH2 [[A^14]BR2GK(1-25)a]
MBC S. aureus [2]: 16 µM
MIC S. aureus [2]: 8 µM
MBC E. faecalis [3]: 16 µM
MIC E. faecalis [3]: 8 µM
MBC P. aeruginosa [4]: 128 µM
MIC P. aeruginosa [4]: 32 µM
MBC C. albicans [5]: 32 µM
MIC C. albicans [5]: 16 µM
MBC MRSA [7]: 64 µM
MIC MRSA [7]: 16 µM
MBC E. coli [8]: 32 µM
MIC E. coli [8]: 8 µM
MBC K. pneumoniae [9]: 256 µM
MIC K. pneumoniae [9]: 128 µM

GFSSLFKAGAKYLRKQVGKAGAQQL-NH2 [[R^14]BR2GK(1-25)a]
MBC S. aureus [2]: 32 µM
MIC S. aureus [2]: 16 µM
MBC E. faecalis [3]: 32 µM
MIC E. faecalis [3]: 16 µM
MBC P. aeruginosa [4]: 32 µM
MIC P. aeruginosa [4]: 16 µM
MBC C. albicans [5]: 128 µM
MIC C. albicans [5]: 64 µM
MBC MRSA [7]: 128 µM
MIC MRSA [7]: 64 µM
MBC E. coli [8]: 16 µM
MIC E. coli [8]: 8 µM
MBC K. pneumoniae [9]: 256 µM
MIC K. pneumoniae [9]: 128 µM
drop in cell viability of HMEC-1 cells [6]: around 15%

GFSSLFKAGAKYLKKQVGKAGAQQL-NH2 [[K^14]BR2GK(1-25)a]
MBC S. aureus [2]: 32 µM
MIC S. aureus [2]: 16 µM
MBC E. faecalis [3]: 64 µM
MIC E. faecalis [3]: 16 µM
MBC P. aeruginosa [4]: 64 µM
MIC P. aeruginosa [4]: 16 µM
MBC C. albicans [5]: 128 µM
MIC C. albicans [5]: 64 µM
MBC MRSA [7]: 128 µM
MIC MRSA [7]: 64 µM
MBC E. coli [8]: 32 µM
MIC E. coli [8]: 8 µM
MBC K. pneumoniae [9]: 256 µM
MIC K. pneumoniae [9]: 128 µM
drop in cell viability of HMEC-1 cells [6]: around 15%

GFSSLFKAGAKYLLKQVGKAGAQQL-NH2 [BR2GK(1-25)a]
hemolysis of horse erythrocytes at 256 µM [1]: around 20%
MBC S. aureus [2]: 8 µM
MIC S. aureus [2]: 4 µM
MBC E. faecalis [3]: 16 µM
MIC E. faecalis [3]: 4 µM
MBC P. aeruginosa [4]: 32 µM
MIC P. aeruginosa [4]: 8 µM
MBC C. albicans [5]: 16 µM
MIC C. albicans [5]: 4 µM
MBC MRSA [7]: 16 µM
MIC MRSA [7]: 4 µM
MBC E. coli [8]: 8 µM
MIC E. coli [8]: 4 µM
MBC K. pneumoniae [9]: 32 µM
MIC K. pneumoniae [9]: 16 µM
drop in cell viability of HMEC-1 cells [6]: around 15%
